Test results published in patent US9131687B2, “Roseobacticides and uses thereof” (PRESIDENT AND FELLOWS OF HARVARD COLLEGE, priority 2010, dated 2015).
Where “and” joins values, the source holds several entries; their conditions need not be identical. Equal values may be shown once. Read-outs that look alike come from different tables or passages of the source.

Legend:
P. gallaeciensis BS107 = experiment: Elicitation of roseobacticide production, HPLC-MS; format: cell-based, Phaeobacter gallaeciensis BS107; conditions: for secondary metabolite production by HPLC-MS: P. gallaeciensis BS107 incubated with elicitor; for EC50: Phaeobacter gallaeciensis
Procedure: (§1) Roseobacter (Phaeobacter gallaeciensis BS107, Ruegeria sp. R11 and Silicibacter pomeroyi DSS3) and other marine strains (see Table 4) were streaked out from frozen stocks and maintained on Marine Broth (Difco 2216) supplemented with 1.5% agar and incubated at 30° C. for two days. A 50 mL test tube containing 5 mL of ½ strength yeast extract, tryptone and sea salt medium (YTSS, per L: 2 g yeast extract, 1.25 g tryptone, 20 g sea salt) was inoculated with each strain and grown overnight at 30° C. on a horizontal rotating drum fermenter. A 500 mL Erlenmeyer flask containing 50 mL of YTSS medium and 0-3 mM pCA was inoculated with 0.5 mL of the overnight culture and incubated at 160 rpm and 30° C. for 3 d. After 3 d, each culture was extracted once with an equal volume of ethyl acetate, dried in vacuo, resuspended in methanol and analyzed by HPLC-MS as described above.
Preparative-scale (2-8 L) cultivation of P. gallaeciensis BS107 (or other roseobacter strains) was carried out in half-strength yeast extract-tryptonesea salt (YTSS) medium, which consists of (per L): 20 g Sigma sea salt, 2 g yeast extract, and 1.25 g tryptone. P. gallaeciensis BS107 (or other roseobacter strains) were streaked out from frozen culture stocks and maintained on Marine Broth agar plates (Difco 2216) at 30° C. Overnight cultures were initiated by inoculating 5 mL YTSS medium in 15 mL culture tubes and shaking these overnight at 250 rpm and 30° C. A 0.5 L Erlenmeyer flask containing 50 mL YTSS medium was inoculated with 0.5 mL of the overnight culture and grown for 12-18 h at 30° C. and 160 rpm. Large 4 L Erlenmeyer flasks, each containing 0.4 L YTSS medium, were inoculated with 4 mL of the overnight culture and supplemented with 1 mM of each of the elicitors (14-18). The cultures were grown for 3 d at 30° C. and roseobacticides purified as described below.
Eight to ten 0.25 L Erlenmeyer flasks each containing 25 mL of YTSS medium and a range of elicitor concentrations (between 0 and 1.2 mM) were inoculated with 0.25 mL of an overnight P. gallaeciensis BS107 culture prepared as described above. These were grown at 30° C. and 160 rpm. After 3 d, each culture was extracted twice with 25 mL of EtOAc. The organic phase was combined, dried over Na2SO4, and subsequently dried in vacuo. The residue was resuspended in 0.3 mL MeOH and analyzed by HPLC-MS as described above. The amount of roseobacticide B (7) produced, which was quantified by massion extraction ([M+H]^+=269), was plotted against the concentration of the elicitor. The maximal amount of 7 was normalized to 100%, and the EC50, the elicitor concentration where production of 7 was half-maximal, was obtained by fitting the data to equation 1, where Bmax and Bmin are the maximal (˜100%) and minimal (˜0%) amounts of 7 and p is a Hill slope parameter to account for variations in the slope. Bmax and Bmin were allowed to vary to obtain the optimal fit as judged by the R^2 correlation value.

P. gallaeciensis = experiment: Growth (OD650 nm) of P. gallaeciensis cultivated with pCA; format: cell-based, Phaeobacter gallaeciensis; conditions: 1 mM pCA, YTSS medium, 3 d, triplicate
Procedure: as §1
The profiles shown in FIG. 1B have not been corrected for the lower cell density observed in the presence of pCA.

S. pomeroyi DSS-3 = experiment: pCA-dependent changes of HPLC-MS profile; format: cell-based, Silicibacter pomeroyi DSS-3; conditions: 0.1-3 mM pCA
Procedure: as §1
(§2) The inventors cultured three roseobacter strains—S. pomeroyi DSS-3, Ruegeria sp. R11, and P. gallaeciensis BS107—in the presence of varying pCA concentrations (0.1-3 mM). At various time points, the cultures were extracted with ethyl acetate and analyzed by HPLC-MS. The HPLC-MS profiles from S. pomeroyi and Ruegeria sp. […] In the absence of pCA, these compounds were not produced by P. gallaeciensis under any of the conditions that were investigated.

Ruegeria sp. R11 = experiment: pCA-dependent changes of HPLC-MS profile; format: cell-based; conditions: 0.1-3 mM pCA
Procedure: as §1, §2

Emiliana huxleyi CCMP372 = experiment: Algaecidal assay, cell counts by flow cytometry and microscopy; format: cell-based; conditions: for IC50: Emiliana huxleyi CCMP372, 24 h, flow cytometry; for algal cell population damaged yet intact: lowest Roseobacticide concentration tested, microscopy; for effect of incubation on E. huxleyi cells: microscopy at 12 and 24 h
Procedure: (§3) The algaecidal effect of Roseobacticide A and B was tested against five axenic microalgae (the Prymnesiophytes Emiliana huxleyi (CCMP372) and Isochrysis sp. (CCMP468), the green alga Tetraselmis suecica (CCMP908), the diatom Chaetoceros muelleri (CCMP1318) and the cryptomonad Rhodomonas salina (CCMP1319)). All strains were grown on L1 media except for CCMP1318, which was grown in L1+Si (Guillard, R. R. L. & Hargraves, P. E., 1993, Phycologia 32: 234-236). All strains were maintained at 24° C. under 12 h:12 h light:dark illumination.
(§4) To perform assays, algal cultures were diluted 1:1 with the medium they were grown in and then 1 mL aliquots were placed in a 48 well microtitre plate and treated with 0.01-0.000000001 mg/mL of Roseobacticide A or B, or alternatively with MeOH solvent, or medium (as controls) and incubated for 24 h at 24° C. under 12 h: 12 h light:dark illumination. Each treatment was monitored microscopically at 2, 12 and 24 h. Cell counts were determined by flow cytometry and compared to the solvent control.
(§5) Flow cytometry. For flow cytometry counts, duplicate 0.5 ml samples were fixed with 0.125% (vol/vol) glutaraldehyde in the dark for 10 min. Cells were then frozen in an ethanol dry ice bath and stored at −80° C. until analyzed. Cell concentrations were measured with an EPICS flow cytometer using red fluorescence and forward angle light scattering properties to identify the cells as previously described (Cavender-Bares, K. K., et al., 1998, Limnol. Oceanogr. 43:1383-1388).

Bacillus subtilis 3610 = experiment: IC50 of Roseobacticide A against selected bacterial strains (disc diffusion / 96 well plate); format: cell-based
Procedure: (§6) Selected bacterial strains (see Table 4) were tested against Roseobacticide A using the disc diffusion assay (Gauvreau, D. & Waring, M., 1982, J. Appl. Microbiol. Biotechnol. 115:104-110). Overnight cultures of each test strain in YTSS were diluted 1000-fold into YTSS containing 0.7% agar and poured into standard Petri dish plates. Blank paper discs (8 mm, Fisher Scientific) were loaded with 50 μg of phaeobactin A and placed on top of the agar. The plates were incubated at 30° C. for 12-24 h and the presence or absence of an inhibition zone was monitored visually. Ampicillin (0.5 μg) and MeOH were used as positive and negative controls, respectively. In addition, the assay was carried out in 96 well plates according to the 2003 guidelines of the Clinical and Laboratory Standards Institute (CLSI, formerly NCCLS) with minor changes.
(§7) Roseobacters were grown and tested in YTSS medium, B. subtilis 3610 in LB, and P. tunicate D2 in Marine Broth (Difco 2216). Inocula for each test organism were prepared by suspending a colony from an agar plate into 5 mL of YTSS, LB, or Marine Broth in 15 mL bacterial culture tubes. These were grown overnight, and then adjusted to 1×10^8 cells/mL. These cell suspensions were used as inocula for 96 well plate assays: 10 μL of inoculum, corresponding to 1×10^6 cells was added to 90 μL of the appropriate medium and supplemented with 10 μL medium (negative control), 10 μL of MeOH (negative control), 10 μL of 0.5 mg/mL, or 0.25 mg/mL of Roseobacticide A. The assay against each test strain was carried out in duplicate. The plate was incubated without shaking for 24 hours at 30° C., and the OD650 nm determined on a Molecular Devices 96 well plate reader. […] The OD650 nm for the wells containing Roseobacticide A in all each cases was between 80-100% of the value determined for the respective negative controls.

[1] = test system: Phaeobacter gallaeciensis 2.10; experiment: as above; format: cell-based
Procedure: as §6, §7

[2] = test system: Phaeobacter gallaeciensis BS107; experiment: as above; format: cell-based
Procedure: as §6, §7

[3] = test system: Pseudoalteromonas tunicata D2; experiment: as above; format: cell-based
Procedure: as §6, §7

Reugeria sp. R11 = experiment: as above; format: cell-based
Procedure: as §6, §7

[4] = test system: Silicibacter pomeroyi DSS3; experiment: as above; format: cell-based; conditions: Ruegeria pomeroyi
Procedure: as §6, §7

Silicibacter sp. TM1040 = experiment: as above; format: cell-based
Procedure: as §6, §7

Vibrio anguillarum = experiment: as above; format: cell-based
Procedure: as §6, §7

[5] = test system: Chaetoceros muelleri CCMP1318; experiment: Algaecidal assay, cell counts by flow cytometry and microscopy; format: cell-based
Procedure: as §3, §4, §5

Isochrysis sp. CCMP468 = experiment: as above; format: cell-based; conditions: Isochrysis sp. CCMP468, 24 h, flow cytometry
Procedure: as §3, §4, §5

[6] = test system: Rhodomonas salina CCMP1319; experiment: as above; format: cell-based; conditions: for IC50: Rhodomonas salina CCMP1319, 24 h, flow cytometry
Procedure: as §3, §4, §5

[7] = test system: Tetraselmis suecica CCMP908; experiment: as above; format: cell-based; conditions: Tetraselmis suecica CCMP908, 24 h, flow cytometry
Procedure: as §3, §4, §5

[8] = test system: panel of marine bacteria and B. subtilis 3610; experiment: Antibacterial assay against the whole panel of test strains (96 well plate, OD650); format: cell-based; conditions: 10 μL of 0.5 mg/mL or 0.25 mg/mL, 24 hours, 30° C., all test strains
Procedure: as §6
Roseobacters were grown and tested in YTSS medium, B. subtilis 3610 in LB, and P. tunicate D2 in Marine Broth (Difco 2216). […] The plate was incubated without shaking for 24 hours at 30° C., and the OD650 nm determined on a Molecular Devices 96 well plate reader. […] The OD650 nm for the wells containing Roseobacticide A in all each cases was between 80-100% of the value determined for the respective negative controls.

algae = experiment: Algicidal activity (lysis of algae), summary over algae; format: cell-based; conditions: read-out: LC50 range, algicidal activity
Procedure: as §3, §4
Flow cytometry. […] Cells were then frozen in an ethanol dry ice bath and stored at −80° C. until analyzed. Cell concentrations were measured with an EPICS flow cytometer using red fluorescence and forward angle light scattering properties to identify the cells as previously described (Cavender-Bares, K. K., et al., 1998, Limnol. Oceanogr. 43:1383-1388).

[9] = BS107, 72 h, 3 d culture, HPLC-MS ion extraction, read-out: EC50, elicitor concentration where production of roseobacticide B (7) is half-maximal

O=C(O)/C=C/c1ccc(O)cc1 [pCA, p-coumaric acid]
secondary metabolite production by HPLC-MS (P. gallaeciensis BS107): stimulated the production of a family of compounds
secondary metabolite production by HPLC-MS (P. gallaeciensis BS107; listed as 14): production of a variety of new metabolites
EC50 (P. gallaeciensis BS107; [9]): 790 ± 30 µM
EC50 (P. gallaeciensis BS107; BS107, FIG. 1C, average of two measurements, read-out: EC50, dose-response of (6) as a function of [pCA]): 790 ± 30 µM
OD650 nm lower than cultures without pCA (P. gallaeciensis): 17±8%
changes of HPLC-MS profile (S. pomeroyi DSS-3): no significant pCA-dependent changes
changes of HPLC-MS profile (Ruegeria sp. R11): no significant pCA-dependent changes

CSc1ccccc2c(-c3ccccc3)c(=O)oc1-2 [Roseobacticide B]
IC50 (Emiliana huxleyi CCMP372): 0.19 µM and ≥ 0.19 µM
algal cell population damaged yet intact (Emiliana huxleyi CCMP372): 48%
effect of incubation on E. huxleyi cells (Emiliana huxleyi CCMP372): cell lysis after 24 h, with cellular damage visible after 12 h

CSc1cccc2c(-c3ccc(O)cc3)c(=O)oc-2c1 [Roseobacticide A]
IC50 (Bacillus subtilis 3610): > 160 µM
IC50 [1]: > 160 µM
IC50 [2]: > 160 µM
IC50 [3]: > 160 µM
IC50 (Reugeria sp. R11): > 160 µM
IC50 [4]: > 160 µM
IC50 (Silicibacter sp. TM1040): > 160 µM
IC50 (Vibrio anguillarum): > 160 µM
effect on C. muelleri cell shape ([5]; 3.5 μM, 24 h): major morphological changes
IC50 ([5]; Chaetoceros muelleri CCMP1318, 24 h, flow cytometry): > 35 µM
IC50 (Emiliana huxleyi CCMP372): ≥ 2.2 µM
algal cell population damaged yet intact (Emiliana huxleyi CCMP372): 20%
effect of incubation on E. huxleyi cells (Emiliana huxleyi CCMP372): cell lysis after 24 h, with cellular damage visible after 12 h
IC50 (Isochrysis sp. CCMP468): > 35 µM
IC50 [6]: ≥ 0.1 µM
IC50 ([6]; Rhodomonas salina, 24 h): 0.1 µM
susceptibility of the R. salina population ([6]; dose response, micrographs): Only a subpopulation appears to be susceptible
IC50 [7]: > 35 µM
OD650 nm relative to the respective negative controls [8]: 80-100%
CC50 (algae): 0.1 to 35 µM

COc1cc(/C=C/C(=O)O)ccc1O [Roseobacticide 16, ferulic acid]
secondary metabolite production by HPLC-MS (P. gallaeciensis BS107): production of a variety of new metabolites
EC50 (P. gallaeciensis BS107; [9]): 160 ± 20 µM

CSSc1cccc2c(-c3ccccc3)c(=O)oc-2c1 [Roseobacticide E]
initial bioassays against E. huxleyi (Emiliana huxleyi CCMP372): potent antialgal compounds

CSc1cccc2c(-c3c[nH]c4ccccc34)c(=O)oc-2c1 [Roseobacticide C]
initial bioassays against E. huxleyi (Emiliana huxleyi CCMP372): potent antialgal compounds

COc1cc(/C=C/C(=O)O)cc(OC)c1O [Roseobacticide 15, sinapic acid]
secondary metabolite production by HPLC-MS (P. gallaeciensis BS107): production of a variety of new metabolites
EC50 (P. gallaeciensis BS107; [9]): 430 ± 30 µM
